# Experimental data published in patent US12564610B2, “Human periventricular endothelial cell therapy for neuropsychiatric disorders” (The McLean Hospital Corporation, priority 2019, dated 2026).
# Experiments:
# Format in all cases: cell-based
# [1] = test system: human periventricular endothelial cells; experiment: Long-distance migration assay of periventricular endothelial cells with chemicals; details: compared to control (no chemicals added), five days
# Description: Long-distance migration assay: In preparation for migration assays, two-well silicone culture inserts (from ibidi GmbH, Cat #80209) were converted into one-well inserts by cutting with a sharp, sterile blade. Individual one-well inserts were placed in the middle of a 35 mm dish coated with Poly-Ornithine and Laminin. The boundary of the insert was marked on the back of each dish with a thin marker. For this assay, periventricular endothelial cells, control endothelial cells and endothelial cells derived without GABA and WNT7A were used at passage number P2 or P3, while GABA interneurons cultured for six weeks were used. 10^4 periventricular endothelial cells or endothelial cells derived without GABA and WNT7A were seeded in each insert in periventricular endothelial cell medium without GABA. Same number of GABAergic interneurons or control endothelial cells were seeded per insert in their respective manufacturer's recommended medium. The insert was removed after 48 hours and cells cultured for five days. After 5 days, cells were fixed and fluorescently labeled with an anti-human CD31 antibody (for endothelial cells) or an anti-human β-Tubulin antibody (for neurons) and DAPI. The distance between each cell body and the edge of the insert-boundary was measured using ImageJ.
# Migration assays with chemicals: To assess the roles of GABA or SDF-1/CXCL12 signaling on migration of human periventricular endothelial cells, 10^4 cells were seeded in one well insert and allowed to migrate in the presence of respective agonist or antagonist in periventricular endothelial cell medium (without GABA). After five days, cells were fixed, stained with anti-human CD31 antibody (Millipore), imaged and the distance migrated was calculated using ImageJ. To examine the effect of endothelial GABA or endothelial SDF-1/CXCL12 signaling on interneuron migration, human periventricular endothelial cells were seeded in 35 mm dish (10^5 cells/cm^2) and incubated with respective chemical for a period of 48 hours. […]
# [2] = test system: GABAergic interneurons on pre-incubated human periventricular endothelial cells; experiment: Interneuron migration over chemical-pre-treated periventricular endothelial cells; details: interneurons migrate 48 hours, vs control
# Description: Migration assays with chemicals: To assess the roles of GABA or SDF-1/CXCL12 signaling on migration of human periventricular endothelial cells, 10^4 cells were seeded in one well insert and allowed to migrate in the presence of respective agonist or antagonist in periventricular endothelial cell medium (without GABA). After five days, cells were fixed, stained with anti-human CD31 antibody (Millipore), imaged and the distance migrated was calculated using ImageJ. To examine the effect of endothelial GABA or endothelial SDF-1/CXCL12 signaling on interneuron migration, human periventricular endothelial cells were seeded in 35 mm dish (10^5 cells/cm^2) and incubated with respective chemical for a period of 48 hours. 3×10^4 GABAergic interneurons were seeded on top of the periventricular endothelial cells using a one-well insert, and allowed to migrate over the pre-incubated periventricular endothelial cells for 2 days. Migration of neurons was assayed by staining with anti-human β-Tubulin antibody (Biolegend) and imaged. The concentration of chemicals used in the assays are as follows: muscimol (Sigma) 100 uM, BMI (Sigma) 100 uM, AMD3100 (Sigma) 50 μM, recombinant human SDF-1α (Peprotech) 40 nM. The chemicals were kept at −20° as concentrated stock solutions and diluted on the day of the experiment.
# [3] = test system: human periventricular endothelial cells; experiment: Junction protein immunostaining in differentiating periventricular endothelial cells (effect of GABA / WNT7A)
# Description: Endothelial cell differentiation and culture: H9 cells (WiCell, Madison, WI) were maintained in E8 media (Thermo Fisher Scientific) on Matrigel (BD Biosciences)-coated plates and passaged once a week with 0.5 mM EDTA (Thermo Fisher Scientific) in PBS. On day 0 of differentiation, H9 cells were dissociated with Accutase (Sigma), and plated at a density of 10^5 cells/cm^2 on Matrigel-coated plates. […] Rock inhibitor, Y-27632 (1004, Selleck Chemicals) was added for first 24 hours to improve cell survival. On day 2, cells were switched to vascular inducing medium composed of E6 medium (Thermo Fisher Scientific) containing BMP4 (50 ng/ml), SB431542 (5 μM, Cayman Chemicals), GABA (5 μM), WNT7A (500 ng/ml), FGF2 (100 ng/ml, Peprotech) and VEGF-A (50 ng/ml, Peprotech). On day 5, cells were split at 1:6 ratio using Accutase and plated on Matrigel-coated plates in periventricular endothelial cell (PVEC) medium consisting of E6 with VEGF-A (50 ng/ml), FGF2 (100 ng/ml) and GABA (5 μM). On day 7, periventricular endothelial cells were isolated from the mixed population by fluorescence-activated cell sorting (FACS) and seeded on Matrigel-coated plates in periventricular endothelial cells medium at a density of 6×10^5 cells/cm^2. For routine culturing, periventricular endothelial cells were dissociated using Accutase, and seeded on Matrigel-coated plates at a density of 6×10^5 cells/cm^2 (high density seeding) or 1.2×10^5 cells/cm^2 (low density seeding), with medium change every alternate day. Periventricular endothelial cells were cryopreserved after at least one passaging in freezing medium composed of 90% periventricular endothelial cells medium and 10% DMSO. As a source of neurons, we used human iPSC-derived GABAergic neurons from Cellular Dynamics (Madison, WI, Cat #R1013). As control for microarray analysis and for cell migration assays, we used human-iPSC derived endothelial cells from Cellular Dynamics (Madison WI, Cat #R1022), whose gene expression profile is similar to human aortic endothelial cells (HAECs; https://fujifilmedi.com/assets/CDI130925MIPTEC04.pdf). […]
# [4] = endothelial cells treated 48 hours with 100 μM
smiles,measurement,setting,value
"C[N+]1(C)CCc2cc3c(cc2[C@H]1[C@@H]1OC(=O)c2c1ccc1c2OCO1)OCO3.[I-] [BMI, bicuculline methiodide]",periventricular endothelial cell migration,[1]; 100 μM,significant decrease in cell migration
same,interneuron migration on pre-treated periventricular endothelial cells,[2]; [4],decreased migration
"NCCCC(=O)O [GABA, gamma amino-butyric acid]",tight junction formation (Claudin5 and ZO-1 staining),"[3]; 5 uM GABA, in comparison to 50 μM or 100 μM",increases tight junction formation
same,localization of tight junction proteins Claudin 5 and ZO-1,[3]; 50 uM or 100 μM GABA,disrupted the localization of tight junction proteins Claudin 5 and ZO-1
same,expression of VE-Cadherin,"[3]; increase in GABA levels (5, 50, 100 μM)",not affected by increase in GABA levels
NCc1cc(=O)[nH]o1 [muscimol],periventricular endothelial cell migration,[1]; 100 μM,significant increase in the number of migrating cells
same,interneuron migration on pre-treated periventricular endothelial cells,[2]; [4],significantly higher migratory ability
c1cc(CN2CCCNCCNCCCNCC2)ccc1CN1CCCNCCNCCCNCC1 [AMD3100],periventricular endothelial cell migration,[1]; 50 μM,no significant effect on endothelial cell migration
same,interneuron migration on pre-treated periventricular endothelial cells,[2]; endothelial cells treated 48 hours with 50 μM,No discernible effect on interneuron migration
